These results are taken from patent US12583870B2, “Azaheteroaryl compound and application thereof” (SHANGHAI BLUERAY BIOPHARMA CO., LTD., priority 2019, dated 2026).

Assay [1] relates to trimethylation level of histone H3K27 in G401 cells. Description: ELISA (H3K27 trimethylation) analysis in G401 cells. Conditions: Homo sapiens, G-401, 72 hours, H3K27me3 standardized to H3. The assay is classed as cell-based. The method, then:
3-fold series dilution with DMSO was carried out on the representative compounds of the present disclosure; and 10 concentration gradients were detected for each compound, with the highest detection concentration of 10 μM. The compounds were diluted 200-fold into the G401 cells cultured in a 96-well plate (DMSO at a final concentration of 0.5%). After the cells, administered with the compound, were cultured for 72 hours, the trimethylation level of the histone H3K27 was detected using the ELISA method.
Extraction of the histone: in a 96-well plate, the compound-treated cells were washed three times with 1×PBS (10×PBS buffer (80 g NaCl (Sigma, product number S3014), 2 g KCl (Sigma, product number 60128), 14.4 g Na2HPO4 (Sigma, product number S5136), and 2.4 g KH2PO4 (Sigma, product number P9791) in 1 L of water, adjusting the pH to 7.4)). 100 μL of 0.4 N HCl was added into each well. The plate was placed at 4° C. and gently agitated for 2 hours to lyse the cells. The cell lysate was then neutralized with 80 μL of neutralization buffer (0.5 M disodium hydrogen phosphate, pH 12.5, 2.5 mM DTT; 1% cocktail (Sigma, product number P8340)) (the cell lysate and the neutralization buffer were thoroughly mixed to uniformity).
ELISA detection method: the cell lysate was transferred in parallel to two 384-well detection plates (PerkinElmer, OptiPlate-384HB, product number 6007290), wherein one of the plates was used to detect the H3K27 trimethylation level and the other plate was used to determine the level of H3. PBS was used to adjust the final volume to 50 μL/well. The plates were coated at 4° C. overnight. On the following day, the solution inside the wells was discarded and the plates were washed 5 times with TBST buffer (1×TBS (10×TBS: 24.2 g Tris (Sigma, product number T6066), 80 g NaCl (Sigma, product number S3014) in 1 L of water, adjusting the pH with HCl to 7.6), 0.1% Tween-20) and dried on an absorbent paper by inversion. 70 μL of blocking buffer (TBST, 5% BSA) was added into the coated reaction wells and the plates were incubated at room temperature for 1 hour. The blocking buffer was discarded and primary antibodies were added (30 μL/well). The desired primary antibodies were all diluted with a blocking buffer and the dilution factor was as follows: anti-H3K27me3 antibody (Cell Signaling Technology, product number 9733), 1:2000 dilution; anti-H3 antibody (Cell Signaling Technology, product number 4499), 1:10000 dilution. After the primary antibodies were added, the plates were placed at room temperature and incubated for 1 hour. After the plates were washed with TBST 5 times, the plates were dried by inversion. A secondary antibody (30 μL/well) was added to each of the reaction wells and the plates were incubated at room temperature for 1 hour. The secondary antibody (anti-rabbit antibody (Jackson ImmunoResearch, product number 111-035-003)) was diluted 2000-fold with a blocking buffer before use. After 1 hour, the plates were washed with TBST and dried by inversion. 30 μL of ECL substrate (Pierce, product number 34080) was added into each well and centrifuged at 2000 rpm for 30 seconds. The signal of each sample was detected using SpectraMax (Molecular Devices). Data processing: H3K27 methylation readings were first standardlized using H3 signals and 0.5% DMSO-treated samples was used as the control to calculate the inhibition percentage of the compounds. Data were fit to obtain Dose-Response curves using the GraphPad prism 5 program and the IC50 values of the test compounds were obtained.

The next assay relates to KARPAS-422 cells. Description: Cell proliferation analysis, KARPAS-422, 13 days, CellTiter-Glo. The assay is classed as cell-based. The note with it: Homo sapiens, 312 h. The method, then:
Human B-cell non-Hodgkin lymphoma cells, KARPAS-422 S, were cultured in a culture flask using standard cell culture conditions. The medium contained 15% fetal bovine serum (FBS, Invitrogen, product number 10099-141) and 1% penicillin/streptomycin solution (P/S) RPMI-1640 (Invitrogen, product number 11875), and the culture flask was placed and cultured in a sterile incubator at the temperature of 37° C. and […] with a relative humidity of […] To detect the effect of PRC2 inhibitors on cell proliferation, cells in exponential growth phase were taken and seeded into a 96-well plate (Corning, product number 3904) at a density of 1×10^4 cells/well, and 100 μL of the medium was added into each well. Subsequently, the compounds at different concentrations disclosed in the present disclosure were added into the wells where cells had already been seeded (9 concentration gradients were provided for each compound, with the highest detection concentration at 10 μM, 3-fold gradient dilution) and two replicates in parallel were provided for each treatment concentration. DMSO was at a final concentration of 0.5%. Afterwards, viable cell numbers were determined using Vi-CELL (Beckman Coulter) every 3-4 days. Cells counted were seeded into a new 96-well plate at the same density (1×10^4 cells/well) each time. The wells were supplemented with a fresh medium to 100 μL and at the same time, compounds at different concentrations were added. The cells were cultured to day 13. 100 μL of CellTiter-Glo (CellTiter-GloCellTiter-GloCellTiter-GloCTG) (Promega, product number G7573) was added into each well. The plate was placed in the dark at room temperature for 10-20 minutes and the luminescence signal was read using SpectraMax i3× (Molecular Devices).
For orientation: In ATP-based viability assays light output follows the ATP content of the culture.

By IC50 is commonly meant the point on the concentration scale where inhibition reaches its midpoint. Lower therefore signals higher potency. With `N#Cc1cnc2c(-c3cnc(NCc4c(F)ccc5c4CCO5)n4cnnc34)cc(F)cn12` [6-fluoro-8-(5-(((5-fluoro-2,3-dihydrobenzofuran-4-yl)methyl)amino)-[1,2,4]triazolo[4,3-c]pyrimidin-8-yl)imidazo[1,2-a]pyridine-3-carbonitrile], the IC50 in assay [1] stood at 0.0089 µM; in the assay on KARPAS-422 cells it was 0.0083 µM.

For `NC(=O)c1cnc2c(-c3cnc(NCc4c(F)ccc5c4CCO5)n4cnnc34)cc(F)cn12` [6-fluoro-8-(5-(((5-fluoro-2,3-dihydrobenzofuran-4-yl)methyl)amino)-[1,2,4]triazolo[4,3-c]pyrimidin-8-yl)imidazo[1,2-a]pyridine-3-carboxamide], the IC50 in assay [1] came to 0.0134 µM; in the assay with KARPAS-422 cells, 0.0046 µM.

`Fc1ccc2c(c1CNc1ncc(-c3cccc4nn[nH]c34)c3nncn13)CCO2` [8-(1H-benzo[d][1,2,3]triazol-7-yl)-N-((5-fluoro-2,3-dihydrobenzofuran-4-yl)methyl)-[1,2,4]triazolo[4,3-c]pyrimidin-5-amine]: the results for the IC50 (in assay [1]; in the assay on KARPAS-422 cells) were 0.0007 µM and 0.0012 µM, respectively.

On to `Cc1nc2c(-c3cnc(NCc4c(F)ccc5c4CCO5)n4cnnc34)ccc(C)n2n1` [8-(2,5-dimethyl-[1,2,4]triazolo[1,5-a]pyridin-8-yl)-N-((5-fluoro-2,3-dihydrobenzofuran-4-yl)methyl)-[1,2,4]triazolo[4,3-c]pyrimidin-5-amine], for which the IC50 (in assay [1]; in the assay with KARPAS-422 cells) was 0.0013 µM each time.

On to `CN(C)c1nc2c(-c3cnc(NCc4c(F)ccc5c4CCO5)n4cnnc34)cc(F)cn2n1` [8-(2-(dimethylamino)-6-fluoro-[1,2,4]triazolo[1,5-a]pyridin-8-yl)-N-((5-fluoro-2,3-dihydrobenzofuran-4-yl)methyl)-[1,2,4]triazolo[4,3-c]pyrimidin-5-amine], for which the IC50 was 0.0018 µM in assay [1] and 0.0244 µM in the assay with KARPAS-422 cells.

In the case of `CN(C)c1nc2c(-c3cnc(NCc4c(F)ccc5c4CCO5)n4cnnc34)cccn2n1` [8-(2-(dimethylamino)-[1,2,4]triazolo[1,5-a]pyridin-8-yl)-N-((5-fluoro-2,3-dihydrobenzofuran-4-yl)methyl)-[1,2,4]triazolo[4,3-c]pyrimidin-5-amine], the IC50 in assay [1] turned out to be 0.0084 µM; with KARPAS-422 cells it was 0.0054 µM.

For the compound `Fc1ccc2c(c1CNc1ncc(-c3ccc(N4CC5(COC5)C4)n4ncnc34)c3nncn13)CCO2` [8-(5-(2-oxa-6-azaspiro[3.3]heptan-6-yl)-[1,2,4]triazolo[1,5-a]pyridin-8-yl)-N-((5-fluoro-2,3-dihydrobenzofuran-4-yl)methyl)-[1,2,4]triazolo[4,3-c]pyrimidin-5-amine], the half-inhibitory concentration (IC50) in assay [1] came to 0.0017 µM; in the assay on KARPAS-422 cells, 0.0018 µM.

For the compound `Fc1ccc2c(c1CNc1ncc(-c3ccc(Cn4ccnc4)n4ncnc34)c3nncn13)CCO2` [8-(5-((1H-imidazol-1-yl)methyl)-[1,2,4]triazolo[1,5-a]pyridin-8-yl)-N-((5-fluoro-2,3-dihydrobenzofuran-4-yl)methyl)-[1,2,4]triazolo[4,3-c]pyrimidin-5-amine], the IC50 amounted to 0.0006 µM in assay [1] and 0.0009 µM in the assay on KARPAS-422 cells.

In the case of `COc1ccc(-c2cnc(NCc3c(F)ccc4c3CCO4)n3cnnc23)c2ncc(C#N)n12` [8-(5-(((5-fluoro-2,3-dihydrobenzofuran-4-yl)methyl)amino)-[1,2,4]triazolo[4,3-c]pyrimidin-8-yl)-5-methoxyimidazo[1,2-a]pyridine-3-carbonitrile], the IC50 came out at 0.0039 µM in assay [1] and 0.0062 µM with KARPAS-422 cells.

`Cc1ccc(-c2cnc(NCc3c(F)ccc4c3CCO4)n3cnnc23)c2ncc(C#N)n12` [8-(5-(((5-fluoro-2,3-dihydrobenzofuran-4-yl)methyl)amino)-[1,2,4]triazolo[4,3-c]pyrimidin-8-yl)-5-methylimidazo[1,2-a]pyridine-3-carbonitrile]: the IC50 in assay [1] stood at 0.0052 µM; in the assay on KARPAS-422 cells, 0.003 µM.

For `Cc1ccc(-c2cnc(NCc3c(F)ccc4c3CCO4)n3cnnc23)c2ncc(C(N)=O)n12` [8-(5-(((5-fluoro-2,3-dihydrobenzofuran-4-yl)methyl)amino)-[1,2,4]triazolo[4,3-c]pyrimidin-8-yl)-5-methylimidazo[1,2-a]pyridine-3-carboxamide], the values for the IC50 (in assay [1]; in the assay with KARPAS-422 cells) were 0.0035 µM and 0.0022 µM, respectively.

Turning to `N#Cc1cnc2c(-c3cnc(NCc4c(F)ccc5c4CCO5)n4cnnc34)ccc(N3CCOCC3)n12` [8-(5-(((5-fluoro-2,3-dihydrobenzofuran-4-yl)methyl)amino)-[1,2,4]triazolo[4,3-c]pyrimidin-8-yl)-5-morpholinoimidazo[1,2-a]pyridine-3-carbonitrile], the IC50 (in assay [1]; with KARPAS-422 cells) was 0.0013 µM each time.

For the compound `COc1cc(-c2cnc(NCc3c(F)ccc4c3CCO4)n3cnnc23)c2ncc(C#N)n2c1` [8-(5-(((5-fluoro-2,3-dihydrobenzofuran-4-yl)methyl)amino)-[1,2,4]triazolo[4,3-c]pyrimidin-8-yl)-6-methoxyimidazo[1,2-a]pyridine-3-carbonitrile], the IC50 in assay [1] worked out at 0.0042 µM; with KARPAS-422 cells it was 0.0045 µM.

As to `Cc1ccc(-c2cnc(NCc3c(F)ccc4c3CCO4)n3cnnc23)c2nc(C(=O)N(C)C)cn12` [8-(5-(((5-fluoro-2,3-dihydrobenzofuran-4-yl)methyl)amino)-[1,2,4]triazolo[4,3-c]pyrimidin-8-yl)-N,N,5-trimethylimidazo[1,2-a]pyridine-2-carboxamide], the IC50 turned out to be 0.0023 µM in assay [1] and 0.0028 µM with KARPAS-422 cells.

`Cc1ccc(-c2cnc(NCc3c(F)ccc4c3CCO4)n3cnnc23)c2ncc(C(=O)N(C)C)n12` [8-(5-(((5-fluoro-2,3-dihydrobenzofuran-4-yl)methyl)amino)-[1,2,4]triazolo[4,3-c]pyrimidin-8-yl)-N,N,5-trimethylimidazo[1,2-a]pyridine-3-carboxamide]: the IC50 in assay [1] stood at 0.0014 µM; with KARPAS-422 cells it was 0.0012 µM.

Regarding `CN(C)C(=O)c1ccc(-c2cnc(NCc3c(F)ccc4c3CCO4)n3cnnc23)c2nccn12` [8-(5-(((5-fluoro-2,3-dihydrobenzofuran-4-yl)methyl)amino)-[1,2,4]triazolo[4,3-c]pyrimidin-8-yl)-N,N-dimethylimidazo[1,2-a]pyridine-5-carboxamide], the IC50 in assay [1] worked out at 0.0007 µM; with KARPAS-422 cells, 0.0013 µM.

In the case of `N#Cc1ccc(-c2cnc(NCc3c(F)ccc4c3CCO4)n3cnnc23)c2nccn12` [8-(5-(((5-fluoro-2,3-dihydrobenzofuran-4-yl)methyl)amino)-[1,2,4]triazolo[4,3-c]pyrimidin-8-yl)imidazo[1,2-a]pyridine-5-carbonitrile], the figures for the IC50 (in assay [1]; in the assay with KARPAS-422 cells) were 0.0048 µM and 0.0036 µM, respectively.
